Data on 28 compounds can be found in patent publication US20170066759A1, “AROMATIC 5-MEMBERED HETEROCYCLIC DERIVATIVE HAVING TRPV4-INHIBITING ACTIVITY” (Shionogi & Co., Ltd., priority 2012, published 2017).

In this test the target is T1, human TRPV4 (hTRPV4/CHO cells) (Homo sapiens, UniProt Q9HBA0).
T1 construct: expressed in transfected cells; host or cells: CHO-K1
T1 sequence (Q9HBA0 whole entry): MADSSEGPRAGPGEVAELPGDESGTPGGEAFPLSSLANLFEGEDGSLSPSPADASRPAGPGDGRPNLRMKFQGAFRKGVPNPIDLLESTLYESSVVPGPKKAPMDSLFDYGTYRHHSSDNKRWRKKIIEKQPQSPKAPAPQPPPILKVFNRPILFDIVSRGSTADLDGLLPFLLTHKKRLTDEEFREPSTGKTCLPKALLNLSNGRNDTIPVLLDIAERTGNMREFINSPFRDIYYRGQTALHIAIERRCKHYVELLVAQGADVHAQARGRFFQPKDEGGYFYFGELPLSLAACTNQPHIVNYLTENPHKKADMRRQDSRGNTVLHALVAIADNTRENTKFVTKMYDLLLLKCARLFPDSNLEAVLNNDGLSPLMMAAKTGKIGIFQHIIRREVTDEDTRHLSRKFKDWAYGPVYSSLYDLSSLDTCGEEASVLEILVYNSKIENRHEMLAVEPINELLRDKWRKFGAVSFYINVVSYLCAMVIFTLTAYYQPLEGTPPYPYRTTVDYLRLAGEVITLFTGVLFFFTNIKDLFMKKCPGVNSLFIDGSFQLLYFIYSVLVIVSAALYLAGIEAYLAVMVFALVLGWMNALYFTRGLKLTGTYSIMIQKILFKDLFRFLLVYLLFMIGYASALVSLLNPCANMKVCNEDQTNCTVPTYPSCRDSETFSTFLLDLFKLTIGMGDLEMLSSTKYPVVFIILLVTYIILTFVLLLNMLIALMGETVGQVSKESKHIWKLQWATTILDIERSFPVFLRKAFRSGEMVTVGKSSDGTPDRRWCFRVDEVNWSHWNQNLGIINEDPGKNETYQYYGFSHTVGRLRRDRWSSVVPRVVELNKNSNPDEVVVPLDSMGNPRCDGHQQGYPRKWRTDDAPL
The test can be described thus: Test Example 1: TRPV4 inhibitory activity (IC50 value), 4α-PDD stimulation, Fluo4 calcium fluorescence (FLIPR TETRA). Conditions: Test Example 1, 4α-PDD stimulation, read-out: Test 1 IC50. It is filed as cell-based.
As usually defined, the IC50 is the concentration at which inhibition is half-maximal. `COC(=O)c1ccc(CN2CC(C(=O)Nc3nc(-c4sc(C)nc4C)cs3)C2)cc1` [Compound I-263]: the concentration for half-maximal inhibition (IC50) fell in the range of 100 to 1000 nM.

For the compound `Cc1nc(C)c(-c2csc(NC(=O)Cc3ccc(S(=O)(=O)N4CCOCC4)cc3)n2)s1` [Compound I-157], the IC50 lay in the range of 100 to 1000 nM.

Consider `Cc1nc(C)c(-c2csc(NC(Cc3ccc(Cl)cc3)C(=O)N3CCN(C)CC3)n2)s1` (racemic) [II-45], for which the IC50 was 1000 to 8000 nM.

Consider `Cc1nc(CO)sc1-c1csc(NC(=O)C2CN(S(=O)(=O)c3ccccc3C(F)(F)F)C2)n1` [Compound I-305], for which the IC50 was in the range of 100 to 1000 nM.

In the case of `O=C(Nc1nc(-c2sc(CO)nc2CO)cs1)C1CN(c2ccc(Cl)cc2)C1` [Compound I-343], the IC50 was less than 100 nM.

Regarding `Cc1nc(C)c(-c2csc(NC(=O)N(C)c3c(F)cccc3F)n2)s1` [Compound I-91], the IC50 is 1000 to 8000 nM.

As to `Cc1nc(C)c(-c2csc(NC(=O)Cc3cccc(C(=O)Nc4ccccc4)c3)n2)s1` [Compound I-469], the IC50 is less than 100 nM.

`Cc1nc(C)c(-c2csc(CCOCc3ccc(Br)cc3)n2)s1` [II-51]: the IC50 is 1000 to 8000 nM.

On to `Cc1nc(CO)sc1-c1csc(NC(=O)[C@@H]2C[C@@H](c3ccccc3)CN2C(=O)OC(C)(C)C)n1` [Compound I-277], for which the IC50 was less than 100 nM.

`O=C(Nc1nc(-c2sc(CO)nc2CO)cs1)[C@H]1C[C@@H](OCc2ccccc2C(F)(F)F)C1` [Compound I-347]: the IC50 lay within 100 to 1000 nM.

Consider `Cc1nc(C)c(-c2nc(NC(=O)Cc3c(F)cccc3F)sc2C(=O)Nc2ccc(C#N)cc2)s1` [Compound I-84], for which the IC50 was in the range of 1000 to 8000 nM.

In the case of `Cc1nc(C(=O)NS(C)(=O)=O)sc1-c1csc(NC(=O)Cc2c(F)cccc2F)n1` [Compound I-115], the IC50 was in the range of 1000 to 8000 nM.

Regarding `N#CCc1nc(CO)sc1-c1csc(NC(=O)Cc2ccc(S(=O)(=O)C(F)(F)F)cc2)n1` [Compound I-359], the IC50 was less than 100 nM.

As for `Cc1nc(C)c(-c2csc(Nc3ccncc3)n2)s1` [II-41], the IC50 lay within 1000 to 8000 nM.

`Cc1nc(C)c(-c2csc(NC(=O)[C@H]3C[C@H](c4ccccc4)CN3C(=O)OC(C)(C)C)n2)s1` [Compound I-245]: the IC50 is less than 100 nM.

Regarding `Cc1nc(C)c(-c2csc(NC(=O)CN3CCC(O)(c4ccccc4)CC3)n2)s1` [Compound I-153], the IC50 was 1000 to 8000 nM.

Regarding `CC(=O)N(C)Cc1nc(CO)sc1-c1csc(NC(=O)Cc2ccc(S(=O)(=O)C(F)(F)F)cc2)n1` [Compound I-393], the IC50 is 100 to 1000 nM.

Regarding `CC(=O)N1C[C@H](c2ccccc2)C[C@H]1C(=O)Nc1nc(-c2sc(C)nc2C)cs1` [Compound I-289], the IC50 lay within 100 to 1000 nM.

As for `Cc1nc(C)c(-c2nc(NC(=O)Cc3c(F)cccc3F)sc2-c2cccc(O)c2)s1` [Compound I-70], the IC50 lay in the range of 1000 to 8000 nM.

In the case of `Cc1nc(C)c(-c2csc(NC(=O)CC3CN(c4ccc(C(F)(F)F)cn4)C3)n2)s1` [Compound I-493], the IC50 was 100 to 1000 nM.

Regarding `Cc1nc(C)c(-c2csc(NC(=O)Cn3cc(-c4ccccn4)nn3)n2)s1` [Compound I-426], the IC50 is 1000 to 8000 nM.

For `Cc1nc(C(C)O)sc1-c1csc(NC(=O)[C@H]2C[C@H](F)C2)n1` (mixture of isomers) [Compound I-298], the IC50 lay in the range of 1000 to 8000 nM.

Regarding `Cc1nc(C(F)F)sc1-c1csc(NC(=O)Cc2ccc(N(C)C)cc2)n1` [Compound I-542], the IC50 lay in the range of 100 to 1000 nM.

On to `COc1ccc(N(C)S(=O)(=O)c2ccc(CC(=O)Nc3nc(-c4sc(C)nc4C)cs3)cc2)cc1` [Compound I-158], for which the IC50 is less than 100 nM.

Consider `Cc1nc(C)c(-c2csc(NC(=O)CN3CCCC3c3ccccc3)n2)s1` (stereo not shown) [Compound I-154], for which the IC50 fell in the range of 100 to 1000 nM.

Turning to `Cc1nc(C)c(-c2csc(NC(=O)Cc3cccc(OC(F)(F)F)c3)n2)o1` [Compound I-137], the IC50 is 100 to 1000 nM.

In the case of `O=C(Cc1ccc(S(=O)(=O)C(F)(F)F)cc1)Nc1nc(-c2sc(CO)nc2CC(=O)N2CCOCC2)cs1` [Compound I-376], the half-maximal inhibitory concentration (IC50) is 1000 to 8000 nM.

In the case of `Cc1nc(C)c(-c2csc(NC(=O)[C@@H]3C[C@@H](Oc4ccccc4)CN3C(=O)C(F)(F)F)n2)s1` [Compound I-250], the half-maximal inhibitory concentration (IC50) is less than 100 nM.
